Measured values from ChEMBL document CHEMBL1127594, “Inhibitors of acyl-CoA:cholesterol O-acyltransferase. 11. Structure-activity relationships of several series of compounds derived from N-(chlorocarbonyl) isocyanate” (J Med Chem, 1994).

Assays:
[1] = molecular target: O-acyltransferase (Oryctolagus cuniculus, UniProt G1SFD9); assay: In vitro Acyl coenzyme A:cholesterol acyltransferase inhibitory activity (IAI) was determined by measuring the incorporation of [1-14C]oleolyl-CoA into cholesterol esters by intestinal microsomes isolated from cholesterol-fed rabbits; set-up: species or system Intestine
Sequence of O-acyltransferase (G1SFD9 1-524): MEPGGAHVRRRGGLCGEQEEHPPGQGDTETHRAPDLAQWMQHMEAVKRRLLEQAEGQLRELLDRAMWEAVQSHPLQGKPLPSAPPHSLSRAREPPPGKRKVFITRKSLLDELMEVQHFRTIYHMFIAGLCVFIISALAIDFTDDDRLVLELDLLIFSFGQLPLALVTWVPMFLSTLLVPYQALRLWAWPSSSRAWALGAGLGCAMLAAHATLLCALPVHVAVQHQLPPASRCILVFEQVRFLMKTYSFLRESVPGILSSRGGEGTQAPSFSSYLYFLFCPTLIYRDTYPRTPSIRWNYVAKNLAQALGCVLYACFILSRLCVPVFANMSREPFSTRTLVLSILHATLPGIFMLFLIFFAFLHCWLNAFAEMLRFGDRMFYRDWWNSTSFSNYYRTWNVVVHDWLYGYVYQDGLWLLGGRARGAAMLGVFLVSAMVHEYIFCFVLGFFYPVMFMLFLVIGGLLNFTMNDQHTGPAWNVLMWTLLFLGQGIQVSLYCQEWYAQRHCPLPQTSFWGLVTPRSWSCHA

[2] = system: Rattus norvegicus; assay: In vivo hypocholesterolemic activity was measured in an acute, cholesterol-fed rat model (APCC) at 30 mg/kg dose.; assay type: functional

IC50 [1] [nM] | SMILES | Delta TC [2] [%]
440 | CC(C)c1cccc(C(C)C)c1OC(=O)NC(=O)SCc1ccccc1 | <-43
– | CCCCCCCCCCCCOC(=O)NC(=O)Sc1c(C(C)C)cccc1C(C)C | -4
– | CCCCCCCCCCC(C)OC(=O)NC(=O)Nc1c(C(C)C)cccc1C(C)C (configuration not stated) | <-26
– | CC(C)c1cccc(C(C)C)c1OC(=O)NC(=O)NC(c1ccccc1)c1ccccc1 | -4
77 | CC(C)c1cccc(C(C)C)c1OC(=O)NC(=O)OCc1ccccc1 | -23
46 | CCCCCCCCCCCCC(C)OC(=O)NC(=O)Nc1c(C(C)C)cccc1C(C)C (configuration not stated) | <-33
> 5000 | CCCCCCCCCCCCSC(=O)NC(=O)Sc1c(C(C)C)cccc1C(C)C | <-36
250 | CCCCCCCCCCCCSC(=O)NC(=O)Oc1c(OC)cc(OC)cc1OC | <-59
250 | CCCCN(CCCC)C(=O)NC(=O)Nc1c(C(C)C)cccc1C(C)C | <-30
97 | CC(C)c1cccc(C(C)C)c1OC(=O)NC(=O)SC1CCCCC1 | <-63
120 | CCCCCCCCCCCCOC(=O)NC(=O)Nc1c(C(C)C)cccc1C(C)C | <-38
> 5000 | Cc1cccc(C)c1OC(=O)NC(=O)Oc1c(C)cccc1C | 4
890 | CC(C)c1cccc(C(C)C)c1NC(=O)NC(=O)N1CCC(c2ccccc2)CC1 | 3
6800 | CCCCCCCCCCCCCCC(C)OC(=O)NC(=O)Nc1c(C(C)C)cccc1C(C)C (configuration not stated) | <-26
890 | CC(C)c1cccc(C(C)C)c1NC(=O)NC(=O)N1c2ccccc2Cc2ccccc21 | -18
8 | CCCCCCCCCCCCC(C)SC(=O)NC(=O)Oc1c(C(C)C)cccc1C(C)C (racemic) | <-60
> 5000 | CCCCCCCCCCCCCCOC(=O)NC(=O)Oc1c(OC)cc(OC)cc1OC | -15
9 | CCCCCCCCCCCCCOC(=O)NC(=O)Oc1c(C(C)C)cccc1C(C)C | <-69
– | CCCCCCCCCCCCCCCCOC(=O)NC(=O)Oc1c(C(C)C)cccc1C(C)C | <-70
– | CC(C)c1cccc(C(C)C)c1NC(=O)NC(=O)N1CCCC1 | -7
440 | CC(C)c1cccc(C(C)C)c1NC(=O)N(C)C(=O)N(c1ccccc1)c1ccccc1 | –
660 | CC(C)c1cccc(C(C)C)c1OC(=O)NC(=O)OCCCc1ccccc1 | -24

IC50 [1] [nM] | SMILES | Delta TC [2] [%]
750 | CCCCCCCCC(C)OC(=O)NC(=O)Nc1c(C(C)C)cccc1C(C)C (configuration not stated) | <-22
20 | CCCCCCCCCCC(C)(C)COC(=O)NC(=O)Oc1c(C(C)C)cccc1C(C)C | <-72
58 | CCCCCCCCCCCCCCC(C)OC(=O)NC(=O)Oc1c(C(C)C)cccc1C(C)C (racemic) | <-43
> 5000 | Cc1cccc(C)c1SC(=O)NC(=O)Sc1c(C)cccc1C | -13
340 | CC(C)c1cccc(C(C)C)c1NC(=O)NC(=O)N(c1ccccc1)c1ccccc1 | <-49
1040 | CC(C)c1cccc(C(C)C)c1NC(=O)NC(=O)N(Cc1ccccc1)Cc1ccccc1 | -14
> 1000 | CCCCCCCCCCCCC(C)OC(=O)NC(=O)Oc1c(F)cccc1F (racemic) | <-35
– | CC(C)c1cccc(C(C)C)c1NC(=O)NC(=O)Nc1c(C(C)C)cccc1C(C)C | 0
10 | CCCCCCCCCCCCCCOC(=O)NC(=O)Oc1c(C(C)C)cccc1C(C)C | <-59
1700 | CCCCCCCCCCCCCCN(C)C(=O)NC(=O)Nc1c(C(C)C)cccc1C(C)C | –
7800 | CC(C)c1cccc(C(C)C)c1NC(=O)NC(=O)OC(c1ccccc1)c1ccccc1 | -3
– | CC(C)c1cccc(C(C)C)c1NC(=O)NC(=O)NC(c1ccccc1)c1ccccc1 | 4
880 | CC(C)c1cccc(C(C)C)c1OC(=O)NC(=O)SCCc1ccccc1 | -30
1900 | CC(C)c1cccc(C(C)C)c1NC(=O)NC(=O)N1c2ccccc2Sc2ccccc21 | -6
160 | CCCCCCCCSC(=O)NC(=O)Oc1c(C(C)C)cccc1C(C)C | <-63
350 | CCCCCCCCN(CCCCCCCC)C(=O)NC(=O)Nc1c(C(C)C)cccc1C(C)C | 3
65 | CCCCCCCCCCCCC(C)(C)OC(=O)NC(=O)Nc1c(C(C)C)cccc1C(C)C | –
390 | CCCCCCCC(C)OC(=O)NC(=O)Nc1c(C(C)C)cccc1C(C)C (configuration not stated) | <-24
210 | CCCCCCCCCCCSC(=O)NC(=O)Oc1c(C(C)C)cccc1C(C)C | <-54
1060 | CCCCCC(C)OC(=O)NC(=O)Nc1c(C(C)C)cccc1C(C)C (configuration not stated) | <-22
– | CCN(CC)C(=O)NC(=O)Nc1c(C(C)C)cccc1C(C)C | -16
750 | CC(C)c1cccc(C(C)C)c1NC(=O)NC(=O)N(Cc1ccccc1)C(C)C | <-22

SMILES | IC50 [1] [nM] | Delta TC [2] [%]
CC(C)c1cccc(C(C)C)c1OC(=O)NC(=O)Sc1ccccc1 | > 5000 | <-37
CC(C)c1cccc(C(C)C)c1NC(=O)NC(=O)Oc1c(C(C)C)cccc1C(C)C | 980 | <-25
CC(C)c1cccc(C(C)C)c1OC(=O)NC(=O)SCCN1CCOCC1 | 900 | <-33
CCCCCCCCCCCCCCCCCCOC(=O)NC(=O)Oc1c(C(C)C)cccc1C(C)C | 1000 | <-35
CCCCCCCCCCC(C)OC(=O)NC(=O)Oc1c(C(C)C)cccc1C(C)C (racemic) | 49 | <-66
CC(C)c1cccc(C(C)C)c1OC(=O)NC(=O)Oc1ccccc1 | 1800 | <-29
CC(C)c1cccc(C(C)C)c1OC(=O)NC(=O)Oc1cccc2ccccc12 | 3700 | –
CCCCCCCCCCCOC(=O)NC(=O)Oc1c(C(C)C)cccc1C(C)C | 140 | <-65
CCCCC(C)(C)OC(=O)NC(=O)Oc1c(C(C)C)cccc1C(C)C | 64 | -29
CC(C)(C)c1cccc(C(C)(C)C)c1OC(=O)NC(=O)Oc1c(C(C)(C)C)cccc1C(C)(C)C | 1200 | <-23
CC(C)c1cccc(C(C)C)c1OC(=O)NC(=O)SCCCc1ccccc1 | 69 | <-63
CCCCCCOC(=O)NC(=O)Oc1c(C(C)C)cccc1C(C)C | 53 | <-38
CCCCCCCCC(C)OC(=O)NC(=O)Oc1c(C(C)C)cccc1C(C)C (racemic) | 270 | <-54
O=C(NC(=O)Oc1c(-c2ccccc2)cccc1-c1ccccc1)Oc1c(-c2ccccc2)cccc1-c1ccccc1 | 230 | 0
CCCCC[C@H](C)OC(=O)NC(=O)Oc1c(C(C)C)cccc1C(C)C | 98 | -25
CCCCCCCCCCCCOC(=O)NC(=O)Oc1c(C(C)C)cccc1C(C)C | 21 | <-52
CCCCCCCCCCOC(=O)NC(=O)Oc1c(C(C)C)cccc1C(C)C | 74 | <-44

SMILES | IC50 [1] [nM] | Delta TC [2] [%]
COC(=O)C(OC(=O)NC(=O)Oc1c(C(C)C)cccc1C(C)C)c1ccccc1 (configuration not stated) | 940 | -3
CCCCCCCCCCCCC(C)(C)OC(=O)NC(=O)Oc1c(C(C)C)cccc1C(C)C | 21 | <-51
CC(C)c1cccc(C(C)C)c1OC(=O)NC(=O)SCc1ccc(Cl)cc1 | 160 | <-50
CCCCCCCCCCSC(=O)NC(=O)Oc1c(C(C)C)cccc1C(C)C | 130 | <-52
CC(C)c1cccc(C(C)C)c1OC(=O)NC(=O)N(c1ccccc1)c1ccccc1 | 170 | -3
CCCCCCCCCCCCC(C)OC(=O)NC(=O)Oc1c(C(C)C)cccc1C(C)C (racemic) | 17 | <-50
CCCCCCCCCCCCSC(=O)NC(=O)Oc1c(C(C)C)cccc1C(C)C | 16 | <-63
CC(C)c1cccc(C(C)C)c1OC(=O)NC(=O)OC(c1ccccc1)c1ccccc1 | 350 | <-44
CCCCCCCCOC(=O)NC(=O)Oc1c(C(C)C)cccc1C(C)C | 250 | <-47
CCCCCCCC(C)OC(=O)NC(=O)Oc1c(C(C)C)cccc1C(C)C (racemic) | 97 | <-56
CC(C)c1cccc(C(C)C)c1OC(=O)NC(=O)Sc1c(C(C)C)cccc1C(C)C | 3200 | <-20
CC(C)c1cccc(C(C)C)c1OC(=O)NC(=O)SCc1ccco1 | 470 | <-51
CCCCC[C@@H](C)OC(=O)NC(=O)Oc1c(C(C)C)cccc1C(C)C | 130 | <-49
CC(C)c1cccc(C(C)C)c1OC(=O)NC(=O)Oc1c(C(C)C)cccc1C(C)C | 110 | -24
CCCCCCCCCCCCC(C)OC(=O)N(C)C(=O)Oc1c(C(C)C)cccc1C(C)C (racemic) | > 1000 | -8
CCCCCC(C)OC(=O)NC(=O)Oc1c(C(C)C)cccc1C(C)C (racemic) | 102 | <-60
